Test results taken from ChEMBL document CHEMBL4804286, “3-amino-4-(4-(4 (dimethylcarbamoyl) phenyl)-1,4-diazepan-1-yl) thieno [2,3-b] pyridine-2-carboxamide for use in cancer therapy and formulations comprising the same” (2020).
“And” between values parts separate entries of the source, which are not always exact repeats. Equal values may be shown once. The source made the active and inactive calls. No cut-off for these calls is given here.

What was measured:
[1] = molecular target: Serine/threonine-protein kinase 16 (Homo sapiens) (UniProt O75716); assay: Inhibition of human STK16 assessed as percent of control at 2000 nM by KINOMEscan assay relative to control; parameters: scale not given: the % may be the effect or the level left
[2] = molecular target: Serine/threonine-protein kinase ULK1 (Homo sapiens) (UniProt O75385); assay: Inhibition of human ULK1 assessed as percent of control at 2000 nM by KINOMEscan assay relative to control; parameters: scale not given: the % may be the effect or the level left
[3] = molecular target: Wee1-like protein kinase (Homo sapiens) (UniProt P30291); assay: Inhibition of human WEE1 assessed as percent of control at 2000 nM by KINOMEscan assay relative to control; parameters: scale not given: the % may be the effect or the level left
[4] = test system: eIF-2-alpha kinase GCN2 (Homo sapiens), Q9P2K8 [S808G]; assay: Inhibition of human GCN2 S808G mutant kinase domain 2 assessed as percent of control at 2000 nM by KINOMEscan assay relative to control; parameters: scale not given: the % may be the effect or the level left
[5] = test system: Receptor-type tyrosine-protein kinase FLT3 (Homo sapiens), P36888 [K663Q]; assay: Inhibition of human FLT3 K663Q mutant assessed as percent of control at 2000 nM by KINOMEscan assay relative to control; parameters: scale not given: the % may be the effect or the level left
[6] = molecular target: Serine/threonine-protein kinase Nek11 (Homo sapiens) (UniProt Q8NG66); assay: Inhibition of human NEK11 assessed as percent of control at 2000 nM by KINOMEscan assay relative to control; parameters: scale not given: the % may be the effect or the level left
[7] = molecular target: ALK tyrosine kinase receptor (Homo sapiens) (UniProt Q9UM73); assay: Inhibition of human ALK assessed as percent of control at 2000 nM by KINOMEscan assay relative to control; parameters: scale not given: the % may be the effect or the level left
[8] = molecular target: Serine/threonine-protein kinase 4 (Homo sapiens) (UniProt Q13043); assay: Inhibition of human MST1 assessed as percent of control at 2000 nM by KINOMEscan assay relative to control; parameters: scale not given: the % may be the effect or the level left
[9] = test system: Receptor-type tyrosine-protein kinase FLT3 (Homo sapiens), P36888 [UNDEFINED MUTATION]; assay: Inhibition of human FLT3 ITD/F691L double mutant assessed as percent of control at 2000 nM by KINOMEscan assay relative to control; parameters: scale not given: the % may be the effect or the level left
[10] = molecular target: Interleukin-1 receptor-associated kinase 4 (Homo sapiens) (UniProt Q9NWZ3); assay: Inhibition of human IRAK4 assessed as percent of control at 2000 nM by KINOMEscan assay relative to control; parameters: scale not given: the % may be the effect or the level left
[11] = molecular target: Ephrin type-B receptor 3 (Homo sapiens) (UniProt P54753); assay: Inhibition of human EPHB3 assessed as percent of control at 2000 nM by KINOMEscan assay relative to control; parameters: scale not given: the % may be the effect or the level left
[12] = molecular target: Serine/threonine-protein kinase TNNI3K (Homo sapiens) (UniProt Q59H18); assay: Inhibition of human TNNI3K assessed as percent of control at 2000 nM by KINOMEscan assay relative to control; parameters: scale not given: the % may be the effect or the level left
[13] = molecular target: Mitogen-activated protein kinase kinase kinase 14 (Homo sapiens) (UniProt Q99558); assay: Inhibition of human NIK assessed as percent of control at 2000 nM by KINOMEscan assay relative to control; parameters: scale not given: the % may be the effect or the level left
[14] = test system: Myc-CaP; assay: Antitumor activity against murine castration-resistant Myc-CaP cells xenografted in male FVB mouse assessed as suppression of tumor weight; assay type: functional
[15] = molecular target: Serine/threonine-protein kinase Nek7 (Homo sapiens) (UniProt Q8TDX7); assay: Inhibition of human NEK7 assessed as percent of control at 2000 nM by KINOMEscan assay relative to control; parameters: scale not given: the % may be the effect or the level left
[16] = molecular target: Protein-tyrosine kinase 2-beta (Homo sapiens) (UniProt Q14289); assay: Inhibition of human PYK2 assessed as percent of control at 2000 nM by KINOMEscan assay relative to control; parameters: scale not given: the % may be the effect or the level left
[17] = molecular target: Receptor-interacting serine/threonine-protein kinase 4 (Homo sapiens) (UniProt P57078); assay: Inhibition of human RIPK4 assessed as percent of control at 2000 nM by KINOMEscan assay relative to control; parameters: scale not given: the % may be the effect or the level left
[18] = molecular target: Cyclin-dependent kinase 5 (Homo sapiens) (UniProt Q00535); assay: Inhibition of human CDK5 assessed as percent of control at 2000 nM by KINOMEscan assay relative to control; parameters: scale not given: the % may be the effect or the level left
[19] = test system: Myc-CaP; assay: Inhibition of colony formation in murine castration-resistant Myc-CaP cells at 1 uM by clonogenic assay; assay type: functional; conditions: Mus musculus
[20] = molecular target: Casein kinase I isoform gamma-2 (Homo sapiens) (UniProt P78368); assay: Inhibition of human CSNK1G2 assessed as percent of control at 2000 nM by KINOMEscan assay relative to control; parameters: scale not given: the % may be the effect or the level left
[21] = molecular target: Cyclin-dependent kinase 3 (Homo sapiens) (UniProt Q00526); assay: Inhibition of human CDK3 assessed as percent of control at 2000 nM by KINOMEscan assay relative to control; parameters: scale not given: the % may be the effect or the level left
[22] = molecular target: Serine/threonine-protein kinase 32B (Homo sapiens) (UniProt Q9NY57); assay: Inhibition of human YANK2 assessed as percent of control at 2000 nM by KINOMEscan assay relative to control; parameters: scale not given: the % may be the effect or the level left
[23] = molecular target: Macrophage colony-stimulating factor 1 receptor (Homo sapiens) (UniProt P07333); assay: Inhibition of human autoinhibited CSF1R assessed as percent of control at 2000 nM by KINOMEscan assay relative to control; parameters: scale not given: the % may be the effect or the level left
[24] = molecular target: Serine/threonine-protein kinase MRCK alpha (Homo sapiens) (UniProt Q5VT25); assay: Inhibition of human MRCKA assessed as percent of control at 2000 nM by KINOMEscan assay relative to control; parameters: scale not given: the % may be the effect or the level left
[25] = molecular target: Serine/threonine-protein kinase Sgk2 (Homo sapiens) (UniProt Q9HBY8); assay: Inhibition of human SGK2 assessed as percent of control at 2000 nM by KINOMEscan assay relative to control; parameters: scale not given: the % may be the effect or the level left
[26] = molecular target: Tyrosine-protein kinase ZAP-70 (Homo sapiens) (UniProt P43403); assay: Inhibition of human ZAP70 assessed as percent of control at 2000 nM by KINOMEscan assay relative to control; parameters: scale not given: the % may be the effect or the level left
[27] = molecular target: Tyrosine-protein kinase JAK1 (Homo sapiens) (UniProt P23458); assay: Inhibition of human JAK1 JH1 catalytic domain assessed as percent of control at 2000 nM by KINOMEscan assay relative to control; parameters: scale not given: the % may be the effect or the level left
[28] = test system: Phosphatidylinositol 4,5-bisphosphate 3-kinase catalytic subunit alpha isoform (Homo sapiens), P42336 [E542K]; assay: Inhibition of human PIK3CA E542K mutant assessed as percent of control at 2000 nM by KINOMEscan assay relative to control; parameters: scale not given: the % may be the effect or the level left
[29] = molecular target: Serine/threonine-protein kinase pim-3 (Homo sapiens) (UniProt Q86V86); assay: Inhibition of human PIM3 assessed as percent of control at 2000 nM by KINOMEscan assay relative to control; parameters: scale not given: the % may be the effect or the level left
[30] = molecular target: Protein kinase C iota type (Homo sapiens) (UniProt P41743); assay: Inhibition of human PRKCI assessed as percent of control at 2000 nM by KINOMEscan assay relative to control; parameters: scale not given: the % may be the effect or the level left
[31] = molecular target: Tyrosine-protein kinase CSK (Homo sapiens) (UniProt P41240); assay: Inhibition of human CSK assessed as percent of control at 2000 nM by KINOMEscan assay relative to control; parameters: scale not given: the % may be the effect or the level left
Sequence of Tyrosine-protein kinase CSK (Homo sapiens) (P41240 2-450 limits assumed): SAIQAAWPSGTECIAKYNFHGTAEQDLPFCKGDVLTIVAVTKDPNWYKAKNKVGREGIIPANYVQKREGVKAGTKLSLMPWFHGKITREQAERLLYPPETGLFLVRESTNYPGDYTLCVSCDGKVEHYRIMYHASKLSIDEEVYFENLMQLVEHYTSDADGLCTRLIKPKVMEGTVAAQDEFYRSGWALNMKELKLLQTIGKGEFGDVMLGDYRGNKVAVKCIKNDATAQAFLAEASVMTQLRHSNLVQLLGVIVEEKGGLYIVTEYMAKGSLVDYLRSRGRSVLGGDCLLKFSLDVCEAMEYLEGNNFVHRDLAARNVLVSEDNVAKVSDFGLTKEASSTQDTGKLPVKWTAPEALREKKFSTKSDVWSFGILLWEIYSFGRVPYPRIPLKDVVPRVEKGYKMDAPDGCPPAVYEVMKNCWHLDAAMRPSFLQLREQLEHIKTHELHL

Sequence of eIF-2-alpha kinase GCN2 (Homo sapiens), Q9P2K8 [S808G] (Q9P2K8 whole entry S808G, the tested form may be a part): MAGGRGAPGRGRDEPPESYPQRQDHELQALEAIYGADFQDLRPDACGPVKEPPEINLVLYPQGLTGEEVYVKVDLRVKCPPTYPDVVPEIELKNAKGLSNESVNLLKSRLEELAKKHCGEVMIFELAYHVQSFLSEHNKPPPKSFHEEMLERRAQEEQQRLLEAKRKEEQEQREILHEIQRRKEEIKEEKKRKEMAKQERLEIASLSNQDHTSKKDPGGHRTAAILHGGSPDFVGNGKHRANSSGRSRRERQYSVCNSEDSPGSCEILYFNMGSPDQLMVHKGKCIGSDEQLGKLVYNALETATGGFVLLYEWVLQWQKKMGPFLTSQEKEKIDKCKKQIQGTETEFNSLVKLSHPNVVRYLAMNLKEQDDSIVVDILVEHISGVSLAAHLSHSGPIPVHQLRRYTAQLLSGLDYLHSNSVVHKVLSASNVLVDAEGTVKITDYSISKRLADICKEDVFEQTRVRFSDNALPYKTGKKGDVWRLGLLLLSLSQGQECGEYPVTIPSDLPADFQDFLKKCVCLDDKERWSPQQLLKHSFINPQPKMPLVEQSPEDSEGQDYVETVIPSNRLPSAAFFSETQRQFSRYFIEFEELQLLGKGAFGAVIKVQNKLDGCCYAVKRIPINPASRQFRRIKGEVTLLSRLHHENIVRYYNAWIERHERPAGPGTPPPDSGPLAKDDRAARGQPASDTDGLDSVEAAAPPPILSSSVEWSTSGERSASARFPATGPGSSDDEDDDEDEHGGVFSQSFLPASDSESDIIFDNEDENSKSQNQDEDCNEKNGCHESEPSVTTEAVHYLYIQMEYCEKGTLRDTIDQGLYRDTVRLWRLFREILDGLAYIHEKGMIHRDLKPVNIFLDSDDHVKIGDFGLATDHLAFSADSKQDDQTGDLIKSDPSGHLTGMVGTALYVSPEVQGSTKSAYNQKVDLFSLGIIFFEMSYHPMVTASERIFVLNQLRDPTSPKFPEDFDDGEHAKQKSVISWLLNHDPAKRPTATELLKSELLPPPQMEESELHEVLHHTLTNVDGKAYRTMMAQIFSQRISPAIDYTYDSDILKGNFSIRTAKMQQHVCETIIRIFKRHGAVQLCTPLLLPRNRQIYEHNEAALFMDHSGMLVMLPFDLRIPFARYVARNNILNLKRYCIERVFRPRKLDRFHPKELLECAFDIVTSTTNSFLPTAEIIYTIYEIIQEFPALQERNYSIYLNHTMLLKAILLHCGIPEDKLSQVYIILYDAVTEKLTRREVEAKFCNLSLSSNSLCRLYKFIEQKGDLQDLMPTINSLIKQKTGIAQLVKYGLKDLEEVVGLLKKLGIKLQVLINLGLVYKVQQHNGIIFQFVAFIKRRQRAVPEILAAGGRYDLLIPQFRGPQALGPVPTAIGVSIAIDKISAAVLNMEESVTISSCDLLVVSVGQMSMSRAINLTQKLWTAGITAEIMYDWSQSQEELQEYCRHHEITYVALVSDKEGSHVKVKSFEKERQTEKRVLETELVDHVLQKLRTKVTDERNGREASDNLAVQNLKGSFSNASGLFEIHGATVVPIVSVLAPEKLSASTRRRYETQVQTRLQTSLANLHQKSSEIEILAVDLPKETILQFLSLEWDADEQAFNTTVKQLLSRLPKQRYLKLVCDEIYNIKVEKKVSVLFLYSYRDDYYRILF
Sequence of Tyrosine-protein kinase JAK1 (Homo sapiens) (P23458 whole entry, the tested form may be a part, canonical isoform): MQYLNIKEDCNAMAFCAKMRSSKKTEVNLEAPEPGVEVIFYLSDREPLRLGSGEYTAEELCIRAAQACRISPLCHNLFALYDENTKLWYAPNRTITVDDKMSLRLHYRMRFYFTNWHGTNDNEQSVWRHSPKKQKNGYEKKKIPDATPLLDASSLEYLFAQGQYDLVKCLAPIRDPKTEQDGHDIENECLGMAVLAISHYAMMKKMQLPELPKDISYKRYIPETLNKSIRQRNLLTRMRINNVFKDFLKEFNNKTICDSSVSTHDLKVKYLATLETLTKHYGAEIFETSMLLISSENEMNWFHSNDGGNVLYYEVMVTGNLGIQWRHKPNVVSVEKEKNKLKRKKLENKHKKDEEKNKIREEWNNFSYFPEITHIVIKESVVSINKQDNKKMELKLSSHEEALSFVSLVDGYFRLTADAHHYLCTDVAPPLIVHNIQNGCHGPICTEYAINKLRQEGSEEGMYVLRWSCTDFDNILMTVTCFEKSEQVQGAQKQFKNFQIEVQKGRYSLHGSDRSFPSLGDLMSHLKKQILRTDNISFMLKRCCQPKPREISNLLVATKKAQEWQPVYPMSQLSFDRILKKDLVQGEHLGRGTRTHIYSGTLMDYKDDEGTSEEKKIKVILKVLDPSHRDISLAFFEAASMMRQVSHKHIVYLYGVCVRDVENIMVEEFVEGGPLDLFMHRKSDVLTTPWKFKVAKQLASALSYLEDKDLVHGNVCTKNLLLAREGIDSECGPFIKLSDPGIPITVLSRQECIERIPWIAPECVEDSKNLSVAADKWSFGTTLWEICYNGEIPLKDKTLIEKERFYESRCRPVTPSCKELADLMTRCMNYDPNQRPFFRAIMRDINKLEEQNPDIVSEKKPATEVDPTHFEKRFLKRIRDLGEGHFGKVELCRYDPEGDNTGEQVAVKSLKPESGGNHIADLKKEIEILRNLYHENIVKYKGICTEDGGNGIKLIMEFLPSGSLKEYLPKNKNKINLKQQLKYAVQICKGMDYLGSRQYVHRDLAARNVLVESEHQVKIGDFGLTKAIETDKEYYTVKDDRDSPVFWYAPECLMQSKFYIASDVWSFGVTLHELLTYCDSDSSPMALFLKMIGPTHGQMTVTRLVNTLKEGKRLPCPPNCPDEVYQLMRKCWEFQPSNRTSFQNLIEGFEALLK
Sequence of Phosphatidylinositol 4,5-bisphosphate 3-kinase catalytic subunit alpha isoform (Homo sapiens), P42336 [E542K] (P42336 whole entry E542K, canonical isoform): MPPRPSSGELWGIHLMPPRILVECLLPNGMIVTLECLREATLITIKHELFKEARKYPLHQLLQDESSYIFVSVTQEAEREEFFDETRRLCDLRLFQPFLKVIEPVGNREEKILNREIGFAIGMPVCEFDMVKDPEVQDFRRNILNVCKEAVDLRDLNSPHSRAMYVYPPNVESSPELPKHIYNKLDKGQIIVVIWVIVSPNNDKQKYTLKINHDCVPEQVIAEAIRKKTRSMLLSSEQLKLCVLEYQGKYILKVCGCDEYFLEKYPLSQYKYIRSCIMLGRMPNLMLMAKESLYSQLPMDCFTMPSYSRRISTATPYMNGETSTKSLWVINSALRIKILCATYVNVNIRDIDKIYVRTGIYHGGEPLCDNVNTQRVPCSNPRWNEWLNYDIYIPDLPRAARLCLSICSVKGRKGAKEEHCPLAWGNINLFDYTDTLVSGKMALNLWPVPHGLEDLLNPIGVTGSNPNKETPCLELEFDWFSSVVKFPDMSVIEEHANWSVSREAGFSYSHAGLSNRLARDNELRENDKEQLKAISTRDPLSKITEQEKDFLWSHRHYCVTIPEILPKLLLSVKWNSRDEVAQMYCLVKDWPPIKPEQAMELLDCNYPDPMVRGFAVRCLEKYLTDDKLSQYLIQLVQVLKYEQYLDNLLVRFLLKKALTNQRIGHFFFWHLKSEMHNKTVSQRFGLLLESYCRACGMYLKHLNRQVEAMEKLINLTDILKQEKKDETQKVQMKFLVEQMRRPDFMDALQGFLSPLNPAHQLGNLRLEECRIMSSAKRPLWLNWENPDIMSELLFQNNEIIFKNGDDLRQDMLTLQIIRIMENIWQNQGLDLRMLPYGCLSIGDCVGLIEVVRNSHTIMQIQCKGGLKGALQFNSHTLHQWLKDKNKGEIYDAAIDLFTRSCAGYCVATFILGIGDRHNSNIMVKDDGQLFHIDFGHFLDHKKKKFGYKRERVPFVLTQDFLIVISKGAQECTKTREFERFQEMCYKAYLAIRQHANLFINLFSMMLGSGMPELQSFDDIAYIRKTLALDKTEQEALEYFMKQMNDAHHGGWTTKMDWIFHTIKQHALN
Sequence of Cyclin-dependent kinase 3 (Homo sapiens) (Q00526 whole entry, looked up): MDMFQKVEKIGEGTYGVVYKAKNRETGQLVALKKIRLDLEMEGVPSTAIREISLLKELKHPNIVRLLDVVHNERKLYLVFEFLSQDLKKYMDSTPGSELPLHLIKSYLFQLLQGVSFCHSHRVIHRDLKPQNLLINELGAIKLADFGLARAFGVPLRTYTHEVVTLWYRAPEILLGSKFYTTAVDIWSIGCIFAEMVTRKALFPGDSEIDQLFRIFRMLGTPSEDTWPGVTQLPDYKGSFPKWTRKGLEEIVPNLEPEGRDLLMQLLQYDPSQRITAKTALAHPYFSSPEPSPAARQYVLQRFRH
Sequence of Serine/threonine-protein kinase 32B (Homo sapiens) (Q9NY57 whole entry): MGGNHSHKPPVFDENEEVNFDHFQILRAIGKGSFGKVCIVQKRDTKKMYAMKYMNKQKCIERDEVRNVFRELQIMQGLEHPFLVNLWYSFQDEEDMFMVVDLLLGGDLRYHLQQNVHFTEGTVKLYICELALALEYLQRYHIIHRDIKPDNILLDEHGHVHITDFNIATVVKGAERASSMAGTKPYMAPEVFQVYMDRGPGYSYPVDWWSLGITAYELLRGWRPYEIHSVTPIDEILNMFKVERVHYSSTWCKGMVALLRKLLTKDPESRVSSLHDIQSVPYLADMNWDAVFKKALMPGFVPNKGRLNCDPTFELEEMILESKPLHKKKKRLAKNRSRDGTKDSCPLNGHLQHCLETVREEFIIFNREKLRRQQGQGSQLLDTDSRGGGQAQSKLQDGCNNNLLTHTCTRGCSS

Q: How did the Activity [1] turn out when `CN(C)C(=O)c1ccc(N2CCCN(c3ccnc4sc(C(N)=O)c(N)c34)CC2)cc1` was run?
A: 80% and 87%

Q: And the Activity [2]?
A: 96% and 72%

Q: And the Activity [3]?
A: 100% and 88%

Q: And the Activity [4]?
A: 73% and 88%

Q: And the Activity [5]?
A: 96% and 91%

Q: What about the Activity [6] of the same molecule?
A: 90% and 86%

Q: And the Activity [7]?
A: 81% and 78%

Q: What about the Activity [8] of the same molecule?
A: 100% and 98%

Q: And the Activity [9]?
A: 95% and 75%

Q: And the Activity [10]?
A: 89% and 78%

Q: And the Activity [11]?
A: 96% and 94%

Q: And the Activity [12]?
A: 100%

Q: And the Activity [13]?
A: 100% and 97%

Q: What about the Activity [14] of the same molecule?
A: Active

Q: And the Activity [15]?
A: 100% and 86%

Q: What about the Activity [16] of the same molecule?
A: 97% and 84%

Q: What about the Activity [17] of the same molecule?
A: 89% and 68%

Q: And the Activity [18]?
A: 84% and 94%

Q: And the inhibition [19]?
A: Active

Q: And the Activity [20]?
A: 77% and 69%

Q: What about the Activity [21] of the same molecule?
A: 92% and 97%

Q: And the Activity [22]?
A: 89% and 84%

Q: And the Activity [23]?
A: 88% and 83%

Q: And the Activity [24]?
A: 94% and 100%

Q: What about the Activity [25] of the same molecule?
A: 100% and 81%

Q: What about the Activity [26] of the same molecule?
A: 95% and 87%

Q: What about the Activity [27] of the same molecule?
A: 57% and 82%

Q: And the Activity [28]?
A: 92% and 74%

Q: What about the Activity [29] of the same molecule?
A: 89% and 98%

Q: And the Activity [30]?
A: 100%

Q: What about the Activity [31] of the same molecule?
A: 86% and 92%
